For 42 compounds, Activity and Ki results are on record in ChEMBL document CHEMBL1139097, “Synthesis and QSAR studies on hypotensive 1-[3-(4-substituted phenylthio) propyl]-4-(substituted phenyl) piperazines” (Bioorg Med Chem Lett, 2007).

Assay [1] has as its target 5-hydroxytryptamine receptor 2A (Rattus norvegicus) (UniProt P14842). Put plainly: Displacement of [3H]ketanserin from rat cloned 5HT2A receptor expressed in NIH-3T3-GF6 cells at 10^-6M relative to ketanserin. It counts as cell-based. A general note: In a radioligand displacement assay an active substance lowers the binding of a labelled ligand.
A further assay deals with Felis catus. Put plainly: Hypotensive activity in anaesthetized cat assessed as blood pressure fall at 2 umol/kg, iv. It counts as functional.
In assay [2] the target is 5-hydroxytryptamine receptor 2A (Rattus norvegicus, UniProt P14842). Put plainly: Displacement of [3H]ketanserin from rat cloned 5HT2A receptor expressed in NIH-3T3-GF6 cells. It counts as cell-based.

Broadly, the Ki is the dissociation constant of the complex between target and ligand, obtained from inhibition or displacement. Low values mean tighter binding, high ones weaker binding.

5-hydroxytryptamine receptor 2A, sequence (P14842 whole entry): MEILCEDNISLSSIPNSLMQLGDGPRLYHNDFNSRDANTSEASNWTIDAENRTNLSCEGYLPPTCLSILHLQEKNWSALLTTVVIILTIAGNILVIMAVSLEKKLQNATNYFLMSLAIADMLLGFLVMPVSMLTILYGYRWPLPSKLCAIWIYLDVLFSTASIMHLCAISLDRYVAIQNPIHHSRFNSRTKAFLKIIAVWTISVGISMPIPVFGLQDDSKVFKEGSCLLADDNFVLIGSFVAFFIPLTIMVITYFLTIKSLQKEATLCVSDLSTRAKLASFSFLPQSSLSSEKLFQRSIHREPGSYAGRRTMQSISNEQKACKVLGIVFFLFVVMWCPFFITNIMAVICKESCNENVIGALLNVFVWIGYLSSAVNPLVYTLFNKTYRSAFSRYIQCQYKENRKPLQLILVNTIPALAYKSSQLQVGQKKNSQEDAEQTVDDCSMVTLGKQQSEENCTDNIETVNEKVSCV
5-hydroxytryptamine receptor 2A (Rattus norvegicus), sequence (P14842 whole entry): as above

Consider `Cc1cccc(N2CCN(CCCSc3ccc([N+](=O)[O-])cc3)CC2)c1`, for which the figures for the Activity (in assay [1]; with Felis catus) were 80.5% and 84.41%, respectively. The compound further had a Ki in assay [2] of 21.1 nM.
As for `Cc1cccc(N2CCN(CCCSc3ccc(Cl)cc3)CC2)c1`, in the assay on Felis catus, the Activity is recorded as 43.8%.
As for `CC(=O)Nc1ccc(SCCCN2CCN(c3cccc(C)c3)CC2)cc1`, the Activity in assay [1] came to 94.7%; in the assay on Felis catus, 55%. In addition, in assay [2], the Ki amounted to 6.09 nM.
As to `Cc1ccccc1N1CCN(CCCSc2ccc(F)cc2)CC1`, in the assay on Felis catus, the Activity stood at 37.59%.
The same measure, in the same setting: next, `Cc1ccc(SCCCN2CCN(c3cccc(C)c3)CC2)cc1`: 55.74%; `COc1ccc(SCCCN2CCN(c3cccc(Cl)c3)CC2)cc1`: 42.62%; `COc1ccccc1N1CCN(CCCSc2ccc(Br)cc2)CC1`: 21.59%.
Same read-out and setting: next, `Fc1ccc(N2CCN(CCCSc3ccc(Br)cc3)CC2)cc1`: 19.86%.
Turning to `COc1ccc(N2CCN(CCCSc3ccc(F)cc3)CC2)cc1`, the values for the Activity (in assay [1]; in the assay on Felis catus) were 25.7% and 12.49%, respectively.
Take `Clc1ccc(N2CCN(CCCSc3ccccc3)CC2)cc1Cl`: the Activity in the assay on Felis catus is listed as 45.83%.
Turning to `Cc1ccccc1N1CCN(CCCSc2ccc(Cl)cc2)CC1`, the Activity with Felis catus came out at 40%.
Consider `Fc1ccc(SCCCN2CCN(c3cccc(F)c3)CC2)cc1`, for which the Activity in the assay with Felis catus is given as 34%.
On the same count and under the same terms, next, `COc1ccc(SCCCN2CCN(c3ccc(Cl)c(Cl)c3)CC2)cc1`: 21.05%.
Consider `Fc1ccc(SCCCN2CCN(c3ccccc3)CC2)cc1`, for which the Activity was 37% in assay [1] and 14.28% in the assay with Felis catus.
For the compound `COc1ccc(SCCCN2CCN(c3cccc(C(F)(F)F)c3)CC2)cc1`, the Activity in the assay with Felis catus is on record as 53.42%.
Same read-out and setting: next, `COc1ccc(SCCCN2CCN(c3ccc(F)cc3)CC2)cc1`: 17.46%; `CCNc1ccc(SCCCN2CCN(c3cccc(C)c3)CC2)cc1`: 41.14%.
With `CC(=O)Nc1ccc(SCCCN2CCN(c3ccc(F)cc3)CC2)cc1`, the Activity in assay [1] stood at 85.4%; in the assay with Felis catus it was 21.21%.
For the compound `COc1ccc(N2CCN(CCCSc3ccccc3)CC2)cc1`, in the assay with Felis catus, the Activity is 15.38%.
For `COc1ccc(N2CCN(CCCSc3ccc(Br)cc3)CC2)cc1`, the Activity in assay [1] came to 37.1%; with Felis catus it was 23.06%.
`Cc1cccc(N2CCN(CCCSc3ccc(F)cc3)CC2)c1`: in the assay with Felis catus, the Activity worked out at 38.3%.
The same measure, in the same setting: next, `COc1ccc(SCCCN2CCN(c3cccc(F)c3)CC2)cc1`: 17.02%.
For `c1ccc(SCCCN2CCN(c3ccccc3)CC2)cc1`, the Activity worked out at 37.4% in assay [1] and 41.07% in the assay with Felis catus.
With `Fc1ccc(SCCCN2CCN(c3ccc(Cl)c(Cl)c3)CC2)cc1`, the Activity in the assay on Felis catus turned out to be 38.3%.
On the same count and under the same terms, next, `Cc1ccccc1N1CCN(CCCSc2ccc([N+](=O)[O-])cc2)CC1`: 42%.
On the same count and under the same terms, next, `Cc1ccc(SCCCN2CCN(c3ccc(F)cc3)CC2)cc1`: 21.74%; `O=[N+]([O-])c1ccc(SCCCN2CCN(c3ccc(F)cc3)CC2)cc1`: 25.87%.
As to `Cc1cccc(N2CCN(CCCSc3ccccc3)CC2)c1`, the Activity came out at 75.6% in assay [1] and 65.15% in the assay with Felis catus. In assay [2], this compound displayed a Ki of 13.6 nM.
In the case of `COc1ccc(SCCCN2CCN(c3cccc(C)c3)CC2)cc1`, the Activity in the assay with Felis catus was 21.4%.
With `Cc1cccc(N2CCN(CCCSc3ccc(N)cc3)CC2)c1`, the Activity in the assay on Felis catus turned out to be 24.28%.
On the same count and under the same terms, next, `Nc1ccc(SCCCN2CCN(c3ccc(F)cc3)CC2)cc1`: 13.51%.
Turning to `CC(=O)Nc1ccc(SCCCN2CCN(c3ccccc3C)CC2)cc1`, the Activity in assay [1] worked out at 72.7%; with Felis catus, 51.61%. The compound further gave a Ki in assay [2] of 21.1 nM.
`Cc1ccc(SCCCN2CCN(c3ccccc3C)CC2)cc1`: the Activity in the assay with Felis catus is 61.02%.
On to `COc1ccccc1N1CCN(CCCSc2ccccc2)CC1`, for which the Activity in the assay with Felis catus was determined as 26.23%.
Consider `Fc1ccc(SCCCN2CCN(c3ccc(F)cc3)CC2)cc1`, for which the Activity in assay [1] was determined as 32.9%; in the assay with Felis catus it was 20.66%.
Turning to `CCNc1ccc(SCCCN2CCN(c3ccccc3C)CC2)cc1`, the Activity with Felis catus turned out to be 48.65%.
Regarding `Cc1ccc(SCCCN2CCN(c3ccc(Cl)c(Cl)c3)CC2)cc1`, the Activity in the assay with Felis catus is given as 36.36%.
Same read-out and setting: next, `Fc1ccc(N2CCN(CCCSc3ccc(Cl)cc3)CC2)cc1`: 42.31%.
On the same count and under the same terms, next, `Clc1ccc(SCCCN2CCN(c3ccc(Cl)c(Cl)c3)CC2)cc1`: 26.58%; `Clc1cccc(N2CCN(CCCSc3ccccc3)CC2)c1`: 55.99%.
The same measure, in the same setting: next, `CC(=O)Nc1ccc(SCCCN2CCN(c3ccc(Cl)c(Cl)c3)CC2)cc1`: 20%; `Fc1ccc(N2CCN(CCCSc3ccccc3)CC2)cc1`: 20.69%.
